Consider 16 compounds from patent US20160272617A1, “SUBSTITUTED PHENYLALANINE DERIVATIVES” (BAYER PHARMA AKTIENGESELLSCHAFT, priority 2013, published 2016).

pIC50: −log10 of the molar value. Structures can show the parent of a compound that is named as a salt.

One assay concerns human and animal plasma. Kind of assay: Determination of anticoagulatory activity: activated partial thromboplastin time (aPTT) in plasma. The note with it: concentration of test substance which brings about a 1.5-fold extension of the aPTT, plasma species not given. As to the method: The anticoagulatory activity of the test substances is determined in vitro in human and animal plasma (for example mouse, rat, rabbit, pig and dog plasma). To this end, blood is drawn off in a mixing ratio of sodium citrate/blood of 1:9 using a 0.11 molar sodium citrate solution as receiver. Immediately after the blood has been drawn off, it is mixed thoroughly and centrifuged at about 4000 g for 15 minutes. The supernatant is pipetted off.
The activated partial thromboolastin time (aPTT) is determined in the presence of varying concentrations of test substance or the corresponding solvent using a commercial test kit (C. K. Prest from Diagnostica Stago). The test compounds are incubated with the plasma and the PTT reagent (cephalin, kaolin) at 37° C. for 3 minutes. Coagulation is then started by addition of a 25 mM aqueous calcium chloride solution, and the time when coagulation occurs is determined. The concentration of test substance which brings about a 1.5-fold extension of the aPTT is determined.

In the next assay the target is T1, human factor XIa (Homo sapiens, UniProt P03951).
T1 construct: purchased Kordia
Kind of assay: Measurement of FXIa inhibition (fluorogenic peptide substrate Boc-Glu(OBzl)-Ala-Arg-AMC). It is filed as biochemical. Particulars: factor XIa from Kordia, 15 min preincubation, 30 min at 22° C., fluorescence. The method in brief:
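Released AMC fluorescence (360/460 nm) read after 30 min at 22 °C. The reaction was started with Boc-Glu(OBzl)-Ala-Arg-AMC (10 μM stock) after a 15 min preincubation of the enzyme (0.45 nM stock) with compound (final 50 μM to 0.00013 μM).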

T1 sequence (P03951 388-625 limits assumed): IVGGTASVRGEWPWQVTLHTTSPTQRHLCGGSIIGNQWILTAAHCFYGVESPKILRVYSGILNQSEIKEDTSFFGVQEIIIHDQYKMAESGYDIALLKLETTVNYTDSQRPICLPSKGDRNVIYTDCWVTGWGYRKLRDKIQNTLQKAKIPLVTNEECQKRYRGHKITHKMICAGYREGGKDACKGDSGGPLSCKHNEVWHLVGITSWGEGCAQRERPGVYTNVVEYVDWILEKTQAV
T1 sequence (P03951 19-387 partner limits assumed): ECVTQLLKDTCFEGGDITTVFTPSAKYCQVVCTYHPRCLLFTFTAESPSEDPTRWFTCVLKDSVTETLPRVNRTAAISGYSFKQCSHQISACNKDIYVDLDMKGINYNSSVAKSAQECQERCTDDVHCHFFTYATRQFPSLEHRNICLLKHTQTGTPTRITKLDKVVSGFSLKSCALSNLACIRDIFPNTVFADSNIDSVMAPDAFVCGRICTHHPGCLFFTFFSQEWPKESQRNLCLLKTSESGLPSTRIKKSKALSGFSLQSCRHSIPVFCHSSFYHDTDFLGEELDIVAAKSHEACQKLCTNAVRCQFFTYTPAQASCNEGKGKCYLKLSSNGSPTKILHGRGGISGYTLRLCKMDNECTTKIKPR

For the compound `Cc1cc(C(=O)N[C@@H]2CCCNC2=O)ccc1-c1ccc(C[C@H](NC(=O)[C@H]2CC[C@H](CN)CC2)C(=O)Nc2ccc(-c3nnc(C(F)(F)C(F)(F)C(=O)O)[nH]3)cc2)cc1` [Example 166, 3-[5-(4-{[(2S)-2-({[trans-4-(Aminomethyl)cyclohexyl]carbonyl}amino)-3-(2′-methyl-4′-{[(3R)-2-oxopiperidin-3-yl]carbamoyl}biphenyl-4-yl)propanoyl]amino}phenyl)-4H-1,2,4-triazol-3-yl]-2,2,3,3-tetrafluoropropanoic acid hydrochloride], the “aPTT” value with human and animal plasma amounted to 0.09 µmol/L. Further, the pIC50 – broadly, the IC50 on a negative log10 scale, so that one unit is a factor of ten – against human factor XIa is 9.10.
For `Cc1cc(C(=O)N[C@@H]2C[C@@H](CO)NC2=O)ccc1-c1ccc(C[C@H](NC(=O)[C@H]2CC[C@H](CN)CC2)C(=O)Nc2ccc(-c3nc(C(F)(F)C(F)(F)C(=O)O)n[nH]3)cc2)cc1` [Example 106, 3-[5-(4-{[(2S)-2-({[trans-4-(Aminomethyl)cyclohexyl]carbonyl}amino)-3-(4′-{[(3R,5S)-5-(hydroxymethyl)-2-oxopyrrolidin-3-yl]carbamoyl}-2′-methylbiphenyl-4-yl)propanoyl]amino}-phenyl)-1H-1,2,4-triazol-3-yl]-2,2,3,3-tetrafluoropropanoic acid hydrochloride], in that order: 0.11 µmol/L and 8.96.
For `Cc1cc(C(=O)N[C@H]2CC[C@H](O)CC2)ccc1-c1ccc(CC(NC(=O)[C@H]2CC[C@H](CN)CC2)C(=O)Nc2ccc(-c3nnc(C(F)(F)C(F)(F)C(=O)O)[nH]3)cc2)cc1` (mixture of isomers) [Example 103, 3-[5-(4-{[2-({[trans-4-(Aminomethyl)cyclohexyl]carbonyl}amino)-3-{4′-[(trans-4-hydroxycyclohexyl)carbamoyl]-2′-methylbiphenyl-4-yl}propanoyl]amino}phenyl)-4H-1,2,4-triazol-3-yl]-2,2,3,3-tetrafluoropropanoic acid hydrochloride (enantiomer mixture)], the “aPTT” value with human and animal plasma is 0.1 µmol/L. The same compound had a pIC50 on human factor XIa of 8.96.
For `Cc1cc(C(=O)N2CCNCC2)ccc1-c1ccc(C[C@H](NC(=O)[C@H]2CC[C@H](CN)CC2)C(=O)Nc2ccc(-c3nn[nH]n3)cc2)cc1` [Example 16, trans-4-(Aminomethyl)-N-[(2S)-3-[2′-methyl-4′-(piperazin-1-ylcarbonyl)biphenyl-4-yl]-1-oxo-1-{[4-(2H-tetrazol-5-yl)phenyl]amino}propan-2-yl]cyclohexanecarboxamide hydrochloride] the same measures were 0.23 µmol/L and 8.41.
For `CCN(CC)CCNC(=O)c1ccc(-c2ccc(C[C@H](NC(=O)[C@H]3CC[C@H](CN)CC3)C(=O)Nc3ccc(-c4nn[nH]n4)cc3)cc2)c(Cl)c1` [Example 10, 4′-[(2S)-2-({[trans-4-(Aminomethyl)cyclohexyl]carbonyl}amino)-3-oxo-3-{[4-(2H-tetrazol-5-yl)phenyl]amino}propyl]-2-chloro-N-[2-(diethylamino)ethyl]biphenyl-4-carboxamide hydrochloride], in that order: 0.13 µmol/L and 8.36.
`CCOc1cc(C(=O)NC2CCNCC2)ccc1-c1ccc(C[C@H](NC(=O)[C@H]2CC[C@H](CN)CC2)C(=O)Nc2ccc(-c3nn[nH]n3)cc2)cc1` [Example 119, 4′-[(2S)-2-({[trans-4-(Aminomethyl)cyclohexyl]carbonyl}amino)-3-oxo-3-{[4-(2H-tetrazol-5-yl)phenyl]amino}propyl]-2-ethoxy-N-(piperidin-4-yl)biphenyl-4-carboxamide hydrochloride]: in the assay with human and animal plasma, the “aPTT” value was determined as 0.08 µmol/L. On human factor XIa, the pIC50 was 8.68.
On to `Cc1cc(C(=O)NC2CCN(C)CC2)ccc1-c1ccc(C[C@H](NC(=O)[C@H]2CC[C@H](CN)CC2)C(=O)Nc2ccc(-c3nc(C(F)(F)C(F)(F)C(=O)O)n[nH]3)cc2)cc1` [Example 100, 3-[5-(4-{[(2S)-2-({[trans-4-(Aminomethyl)cyclohexyl]carbonyl}amino)-3-{2′-methyl-4′-[(1-methylpiperidin-4-yl)carbamoyl]biphenyl-4-yl}propanoyl]amino}phenyl)-1H-1,2,4-triazol-3-yl]-2,2,3,3-tetrafluoropropanoic acid hydrochloride], for which, in the assay on human and animal plasma (hydrochloride), the “aPTT” value stood at 0.1 µmol/L. On human factor XIa, this compound showed a pIC50 of 8.66.
Turning to `Cc1cc(C(=O)NC2CC3CCC(C2)N3C)ccc1-c1ccc(C[C@H](NC(=O)C2CCC(CN)CC2)C(=O)Nc2ccc(-c3nn[nH]n3)cc2)cc1` (stereo partly drawn) [Example 44, 4′-[(2S)-2-({[trans-4-(Aminomethyl)cyclohexyl]carbonyl}amino)-3-oxo-3-{[4-(2H-tetrazol-5-yl)phenyl]amino}propyl]-2-methyl-N-(8-methyl-8-azabicyclo[3.2.1]oct-3-yl)biphenyl-4-carboxamide hydrochloride], in the assay on human and animal plasma, the “aPTT” value turned out to be 0.11 µmol/L. For the same compound, on human factor XIa, the pIC50 was 8.24.
For `Cc1cc(C(=O)N[C@@H]2CCNC2)ccc1-c1ccc(C[C@H](NC(=O)[C@H]2CC[C@H](CN)CC2)C(=O)Nc2ccc(-c3nn[nH]n3)cc2)cc1` [Example 8, 4′-[(2S)-2-({[trans-4-(Aminomethyl)cyclohexyl]carbonyl}amino)-3-oxo-3-{[4-(2H-tetrazol-5-yl)phenyl]amino}propyl]-2-methyl-N-[(3R)-pyrrolidin-3-yl]biphenyl-4-carboxamide hydrochloride], in that order: 0.09 µmol/L and 8.60.
For `CCN(CC)CCNC(=O)c1ccc(-c2ccc(C[C@H](NC(=O)[C@H]3CC[C@H](CN)CC3)C(=O)Nc3ccc4cn[nH]c4c3)cc2)c(C)c1` [Example 6, 4′-[(2S)-2-({[trans-4-(Aminomethyl)cyclohexyl]carbonyl}amino)-3-(1H-indazol-6-ylamino)-3-oxopropyl]-N-[2-(diethylamino)ethyl]-2-methylbiphenyl-4-carboxamide hydrochloride], in that order: 0.21 µmol/L and 7.77.
For `NC[C@H]1CC[C@H](C(=O)N[C@@H](Cc2ccc(-c3ccc(C(=O)N[C@@H]4CCCNC4=O)c(F)c3)cc2)C(=O)Nc2ccc(-c3n[nH]c(C(F)(F)C(F)(F)C(=O)O)n3)cc2)CC1` [Example 111, 3-[3-(4-{[(2S)-2-({[trans-4-(Aminomethyl)cyclohexyl]carbonyl}amino)-3-(3′-fluoro-4′-{[(3R)-2-oxopiperidin-3-yl]carbamoyl}biphenyl-4-yl)propanoyl]amino}phenyl)-1H-1,2,4-triazol-5-yl]-2,2,3,3-tetrafluoropropanoic acid hydrochloride] the same measures were 0.13 µmol/L and 9.00.
For the compound `CCN(CC)CCNC(=O)c1ccc(-c2ccc(C[C@H](NC(=O)[C@H]3CC[C@H](CN)CC3)C(=O)Nc3ccc(-c4nn[nH]n4)cc3)cc2)cc1` [Example 38, 4′-[(2S)-2-({[trans-4-(Aminomethyl)cyclohexyl]carbonyl}amino)-3-oxo-3-{[4-(2H-tetrazol-5-yl)phenyl]amino}propyl]-N-{2-[diethylamino]ethyl}biphenyl-4-carboxamide hydrochloride], the “aPTT” value in the assay on human and animal plasma turned out to be 0.42 µmol/L. At human factor XIa, the negative logarithm of the IC50 (pIC50) was 7.85.
In the case of `COc1c(-c2ccc(C[C@H](NC(=O)[C@H]3CC[C@H](CN)CC3)C(=O)Nc3ccc(-c4nn[nH]n4)cc3)cc2)ccc(C(=O)NC2CCNCC2)c1F` [Example 121, 4′-[(2S)-2-({[trans-4-(Aminomethyl)cyclohexyl]carbonyl}amino)-3-oxo-3-{[4-(2H-tetrazol-5-yl)phenyl]amino}propyl]-3-fluoro-2-methoxy-N-(piperidin-4-yl)biphenyl-4-carboxamide hydrochloride], the “aPTT” value with human and animal plasma was determined as 0.007 µmol/L. The same compound showed a pIC50 at human factor XIa of 9.00.
For `Cc1cc(C(=O)NC2CCNCC2)ccc1-c1ccc(C[C@H](NC(=O)[C@H]2CC[C@H](CN)CC2)C(=O)Nc2ccc3[nH]c(=O)oc3c2)cc1` [Example 55, 4′-{(2S)-2-({[trans-4-(Aminomethyl)cyclohexyl]carbonyl}amino)-3-oxo-3-[(2-oxo-2,3-dihydro-1,3-benzoxazol-6-yl)amino]propyl}-2-methyl-N-(piperidin-4-yl)biphenyl-4-carboxamide hydrochloride], in that order: 0.37 µmol/L and 7.39.
On to `Cc1cc(C(=O)NC2CCNC(C)C2)ccc1-c1ccc(C[C@H](NC(=O)[C@H]2CC[C@H](CN)CC2)C(=O)Nc2ccc3c(=O)[nH][nH]c3c2)cc1` (stereo partly drawn) [Example 31, 4′-{(2S)-2-({[trans-4-(Aminomethyl)cyclohexyl]carbonyl}amino)-3-oxo-3-[(3-oxo-2,3-dihydro-1H-indazol-6-yl)amino]propyl}-2-methyl-N-(2-methylpiperidin-4-yl)biphenyl-4-carboxamide hydrochloride], for which the “aPTT” value in the assay with human and animal plasma was 0.22 µmol/L. At human factor XIa, this compound had a pIC50 of 7.52.
For `Cc1cc(C(=O)NC2CCNCC2)ccc1-c1ccc(C[C@H](NC(=O)[C@H]2CC[C@H](CN)CC2)C(=O)Nc2ccc3nc(C(F)F)[nH]c3c2)cc1` [Example 86, 4′-[(2S)-2-({[trans-4-(Aminomethyl)cyclohexyl]carbonyl}amino)-3-{[2-(difluoromethyl)-1H-benzimidazol-6-yl]amino}-3-oxopropyl]-2-methyl-N-(piperidin-4-yl)biphenyl-4-carboxamide hydrochloride] the same measures were 0.14 µmol/L and 7.89.
